# Results from ChEMBL document CHEMBL3885861, “Open TG-GATES”.
# Organism: Rattus norvegicus
# Experiment: Open TG-GATES - Regimen: Single
# Type: toxicity, organism-based, Sprague-Dawley
# Design: regimen Single, gender Male, age 6 weeks
# Conditions: in vivo, po, route gavage; for Bas / Eos / Ht / Lym / MCH / Mono / Neu / RBC / Ret: tissue Blood; for KIDNEY_L / KIDNEY_R / KIDNEY_TOTAL: tissue Kidney; for LIVER: tissue Liver; for ALP / ALT / AST / CRE / Ca / DBIL / IP / K / LDH / Na / PL / RALB / TBIL / TC / TG / TP / gamma-GTP: tissue Plasma
# [1] = 600 mg/kg, 3 h, dose level Middle
# [2] = 600 mg/kg, 6 h, dose level Middle
# [3] = 600 mg/kg, 9 h, dose level Middle
# [4] = 600 mg/kg, 24 h, dose level Middle
# [5] = 2000 mg/kg, 3 h, dose level High
# [6] = 2000 mg/kg, 6 h, dose level High
# [7] = 2000 mg/kg, 9 h, dose level High
# [8] = 2000 mg/kg, 24 h, dose level High
compound,measurement,setting,value
COc1cc2ncnc(Nc3ccc(F)c(Cl)c3)c2cc1OCCCN1CCOCC1 [GEFITINIB],Bas,[1],0%
same,Eos,[1],0.6%
same,Ht,[1],37%
same,Lym,[1],75%
same,MCH,[1],21.1 pg
same,Mono,[1],2.4%
same,Neu,[1],21%
same,RBC,[1],588 x10_4/ul
same,Ret,[1],9.3%
same,KIDNEY_L,[1],1 g
same,KIDNEY_R,[1],1 g
same,KIDNEY_TOTAL,[1],1.9 g
same,LIVER,[1],9.7 g
same,ALP,[1],1687 IU/L
same,ALT,[1],58.6 IU/L
same,AST,[1],80.8 IU/L
same,CRE,[1],0.1 mg/dL
same,Ca,[1],9.7 mg/dL
same,DBIL,[1],0.016 mg/dL
same,IP,[1],8.6 mg/dL
same,K,[1],3.9 meq/L
same,LDH,[1],191.4 IU/L
same,Na,[1],141.8 meq/L
same,PL,[1],141 mg/dL
same,RALB,[1],3.9 g/dL
same,TBIL,[1],0.074 mg/dL
same,TC,[1],87.2 mg/dL
same,TG,[1],49.7 mg/dL
same,TP,[1],5.4 g/dL
same,gamma-GTP,[1],1 IU/L
same,TERMINAL_BW,[2],210.3 g
same,Bas,[2],0%
same,Eos,[2],0.6%
same,Ht,[2],36.6%
same,Lym,[2],80.2%
same,MCH,[2],21.1 pg
same,Mono,[2],2.6%
same,Neu,[2],15.6%
same,RBC,[2],582 x10_4/ul
same,Ret,[2],8.9%
same,KIDNEY_L,[2],0.9 g
same,KIDNEY_R,[2],0.9 g
same,KIDNEY_TOTAL,[2],1.9 g
same,LIVER,[2],9.1 g
same,ALP,[2],1267.2 IU/L
same,ALT,[2],59.4 IU/L
same,AST,[2],82 IU/L
same,CRE,[2],0.1 mg/dL
same,Ca,[2],9.8 mg/dL
same,DBIL,[2],0.016 mg/dL
same,IP,[2],8.8 mg/dL
same,K,[2],4 meq/L
same,LDH,[2],200.4 IU/L
same,Na,[2],141.3 meq/L
same,PL,[2],152.8 mg/dL
same,RALB,[2],3.9 g/dL
same,TBIL,[2],0.078 mg/dL
same,TC,[2],96 mg/dL
same,TG,[2],42.8 mg/dL
same,TP,[2],5.4 g/dL
same,gamma-GTP,[2],1 IU/L
same,TERMINAL_BW,[3],212.8 g
same,Bas,[3],0%
same,Eos,[3],0.8%
same,Ht,[3],37%
same,Lym,[3],77.6%
same,MCH,[3],21.1 pg
same,Mono,[3],3%
same,Neu,[3],18%
same,RBC,[3],587 x10_4/ul
same,Ret,[3],9.2%
same,KIDNEY_L,[3],0.9 g
same,KIDNEY_R,[3],1 g
same,KIDNEY_TOTAL,[3],1.9 g
same,LIVER,[3],8.9 g
same,ALP,[3],1338.6 IU/L
same,ALT,[3],51 IU/L
same,AST,[3],71.2 IU/L
same,CRE,[3],0.2 mg/dL
same,Ca,[3],9.9 mg/dL
same,DBIL,[3],0.016 mg/dL
same,IP,[3],9.1 mg/dL
same,K,[3],4.2 meq/L
same,LDH,[3],160.6 IU/L
same,Na,[3],143.1 meq/L
same,PL,[3],153 mg/dL
same,RALB,[3],3.8 g/dL
same,TBIL,[3],0.076 mg/dL
same,TC,[3],96 mg/dL
same,TG,[3],46.7 mg/dL
same,TP,[3],5.4 g/dL
same,gamma-GTP,[3],0.9 IU/L
same,TERMINAL_BW,[4],211.6 g
same,Bas,[4],0%
same,Eos,[4],0.8%
same,Ht,[4],40%
same,Lym,[4],66.2%
same,MCH,[4],20.7 pg
same,Mono,[4],3.6%
same,Neu,[4],29%
same,RBC,[4],625.6 x10_4/ul
same,Ret,[4],7.6%
same,KIDNEY_L,[4],0.9 g
same,KIDNEY_R,[4],1 g
same,KIDNEY_TOTAL,[4],1.9 g
same,LIVER,[4],8.9 g
same,ALP,[4],1287.2 IU/L
same,ALT,[4],42 IU/L
same,AST,[4],73.8 IU/L
same,CRE,[4],0.2 mg/dL
same,DBIL,[4],0.008 mg/dL
same,IP,[4],8.9 mg/dL
same,K,[4],4.3 meq/L
same,LDH,[4],178.6 IU/L
same,Na,[4],142.8 meq/L
same,PL,[4],186.2 mg/dL
same,RALB,[4],4 g/dL
same,TBIL,[4],0.058 mg/dL
same,TC,[4],126.4 mg/dL
same,TG,[4],65 mg/dL
same,TP,[4],5.5 g/dL
same,gamma-GTP,[4],1.2 IU/L
same,TERMINAL_BW,[5],214.3 g
same,Bas,[5],0%
same,Eos,[5],0.6%
same,Ht,[5],37.2%
same,Lym,[5],68%
same,MCH,[5],21.3 pg
same,Mono,[5],3%
same,Neu,[5],27.6%
same,RBC,[5],591 x10_4/ul
same,Ret,[5],9.4%
same,KIDNEY_L,[5],0.9 g
same,KIDNEY_R,[5],0.9 g
same,KIDNEY_TOTAL,[5],1.8 g
same,LIVER,[5],9.4 g
same,ALP,[5],1590.6 IU/L
same,ALT,[5],71 IU/L
same,AST,[5],87.4 IU/L
same,CRE,[5],0.1 mg/dL
same,Ca,[5],9.9 mg/dL
same,DBIL,[5],0.012 mg/dL
same,IP,[5],9.1 mg/dL
same,K,[5],3.9 meq/L
same,LDH,[5],236 IU/L
same,Na,[5],141.9 meq/L
same,PL,[5],145.4 mg/dL
same,RALB,[5],3.9 g/dL
same,TBIL,[5],0.072 mg/dL
same,TC,[5],91.2 mg/dL
same,TG,[5],56.5 mg/dL
same,TP,[5],5.4 g/dL
same,gamma-GTP,[5],0.9 IU/L
same,TERMINAL_BW,[6],213.7 g
same,Bas,[6],0%
same,Eos,[6],0.8%
same,Ht,[6],37.3%
same,Lym,[6],76.4%
same,MCH,[6],21.3 pg
same,Mono,[6],3.2%
same,RBC,[6],589.2 x10_4/ul
same,Ret,[6],9%
same,KIDNEY_L,[6],0.9 g
same,KIDNEY_R,[6],1 g
same,KIDNEY_TOTAL,[6],1.9 g
same,LIVER,[6],9.1 g
same,ALP,[6],1266.2 IU/L
same,ALT,[6],56.2 IU/L
same,AST,[6],78.6 IU/L
same,CRE,[6],0.2 mg/dL
same,Ca,[6],9.6 mg/dL
same,DBIL,[6],0.024 mg/dL
same,IP,[6],9.1 mg/dL
same,K,[6],3.9 meq/L
same,LDH,[6],184.6 IU/L
same,Na,[6],140.7 meq/L
same,PL,[6],150.8 mg/dL
same,RALB,[6],3.8 g/dL
same,TBIL,[6],0.092 mg/dL
same,TC,[6],99.6 mg/dL
same,TG,[6],30 mg/dL
same,TP,[6],5.4 g/dL
same,gamma-GTP,[6],0.9 IU/L
same,TERMINAL_BW,[7],212.3 g
same,Bas,[7],0%
same,Eos,[7],0.2%
same,Ht,[7],37.4%
same,Lym,[7],76.2%
same,MCH,[7],21.1 pg
same,Mono,[7],2.4%
same,Neu,[7],20.4%
same,RBC,[7],592.6 x10_4/ul
same,Ret,[7],9.3%
same,KIDNEY_L,[7],0.9 g
same,KIDNEY_R,[7],1 g
same,KIDNEY_TOTAL,[7],1.9 g
same,LIVER,[7],8.6 g
same,ALP,[7],1162 IU/L
same,ALT,[7],56.4 IU/L
same,AST,[7],77.4 IU/L
same,CRE,[7],0.1 mg/dL
same,Ca,[7],9.6 mg/dL
same,DBIL,[7],0.028 mg/dL
same,IP,[7],8.7 mg/dL
same,K,[7],3.8 meq/L
same,LDH,[7],210.6 IU/L
same,Na,[7],142.6 meq/L
same,PL,[7],148.2 mg/dL
same,RALB,[7],3.8 g/dL
same,TBIL,[7],0.1 mg/dL
same,TC,[7],98 mg/dL
same,TG,[7],29 mg/dL
same,TP,[7],5.4 g/dL
same,gamma-GTP,[7],0.9 IU/L
same,TERMINAL_BW,[8],204 g
same,Bas,[8],0%
same,Eos,[8],0.5%
same,Ht,[8],40.5%
same,Lym,[8],59.8%
same,MCH,[8],21 pg
same,Mono,[8],3.5%
same,Neu,[8],35.8%
same,RBC,[8],632 x10_4/ul
same,Ret,[8],8.1%
same,KIDNEY_L,[8],0.9 g
same,KIDNEY_R,[8],0.9 g
same,KIDNEY_TOTAL,[8],1.9 g
same,LIVER,[8],8.6 g
same,ALP,[8],1061.5 IU/L
same,ALT,[8],76.8 IU/L
same,AST,[8],126 IU/L
same,CRE,[8],0.2 mg/dL
same,DBIL,[8],0.03 mg/dL
same,IP,[8],8.4 mg/dL
same,K,[8],3.5 meq/L
same,LDH,[8],272 IU/L
same,Na,[8],143.2 meq/L
same,PL,[8],144.8 mg/dL
same,RALB,[8],3.9 g/dL
same,TBIL,[8],0.1 mg/dL
same,TC,[8],111.2 mg/dL
same,TG,[8],39.6 mg/dL
same,TP,[8],5.4 g/dL
same,gamma-GTP,[8],1.4 IU/L
